From the supplement of paper PMC10307832

Assays:
Assay in all cases: relative viability (nuclei count vs DMSO), 5 days (fraction); higher = more cells survive
Decitabine + Dasatinib = compound: Nc1ncn([C@H]2C[C@H](O)[C@@H](CO)O2)c(=O)n1 [Decitabine] + Cc1nc(Nc2ncc(C(=O)Nc3c(C)cccc3Cl)s2)cc(N2CCN(CCO)CC2)n1 [Dasatinib] (partner 0.075 µM)
In short: (§1)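 Relative viability equals treated-well nuclei counts divided by vehicle-well nuclei counts. Counts came from 4× images of lung cancer cell lines grown in 1536-well plates for 5 days after pin-tool dosing on the day after seeding. Dosing used one drug alone or a fixed anchor-drug dose plus five library-drug doses (not always all listed) in √10 steps, and values are medians of duplicate plates.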

Cediranib + AZD7762 = compound: COc1cc2c(Oc3ccc4[nH]c(C)cc4c3F)ncnc2cc1OCCCN1CCCC1 [Cediranib] + NC(=O)Nc1cc(-c2cccc(F)c2)sc1C(=O)N[C@H]1CCCNC1 [AZD7762] (partner 0.2 µM)
In short: as §1

Cediranib + Bortezomib = compound: COc1cc2c(Oc3ccc4[nH]c(C)cc4c3F)ncnc2cc1OCCCN1CCCC1 [Cediranib] + CC(C)C[C@H](NC(=O)[C@H](Cc1ccccc1)NC(=O)c1cnccn1)B(O)O [Bortezomib] (partner 0.002 µM)
In short: as §1

Decitabine + Palbociclib = compound: Nc1ncn([C@H]2C[C@H](O)[C@@H](CO)O2)c(=O)n1 [Decitabine] + CC(=O)c1c(C)c2cnc(Nc3ccc(N4CCNCC4)cn3)nc2n(C2CCCC2)c1=O [Palbociclib] (partner 0.5 µM)
In short: as §1

Cell Line | relative viability (Decitabine + Dasatinib; first compound 0.04 µM) | relative viability (Decitabine + Dasatinib; first compound 0.1265 µM) | relative viability (Decitabine + Dasatinib; first compound 0.4 µM) | relative viability (Decitabine + Dasatinib; first compound 1.265 µM) | relative viability (Decitabine + Dasatinib; first compound 4 µM) | relative viability (Cediranib + AZD7762; first compound 0.04 µM) | relative viability (Cediranib + AZD7762; first compound 0.1265 µM) | relative viability (Cediranib + AZD7762; first compound 0.4 µM) | relative viability (Cediranib + AZD7762; first compound 1.265 µM) | relative viability (Cediranib + AZD7762; first compound 4 µM) | relative viability (Cediranib + Bortezomib; first compound 0.04 µM) | relative viability (Cediranib + Bortezomib; first compound 0.1265 µM) | relative viability (Cediranib + Bortezomib; first compound 0.4 µM) | relative viability (Cediranib + Bortezomib; first compound 1.265 µM) | relative viability (Cediranib + Bortezomib; first compound 4 µM) | relative viability (Decitabine + Palbociclib; first compound 0.04 µM) | relative viability (Decitabine + Palbociclib; first compound 0.1265 µM) | relative viability (Decitabine + Palbociclib; first compound 0.4 µM) | relative viability (Decitabine + Palbociclib; first compound 1.265 µM) | relative viability (Decitabine + Palbociclib; first compound 4 µM)
NCI-H727 | 0.397 | 0.458 | 0.338 | 0.334 | 0.34 | 0.601 | 0.379 | 0.636 | 0.626 | 0.538 | 0.807 | 0.55 | 0.789 | 0.64 | 0.747 | 0.641 | 0.608 | 0.653 | 0.617 | 0.6
NCI-H838 | 0.326 | 0.325 | 0.241 | 0.273 | 0.242 | 0.978 | 0.934 | 0.934 | 0.896 | 0.975 | 0.812 | 0.557 | 0.926 | 0.713 | 1.05 | 0.259 | 0.275 | 0.194 | 0.211 | 0.199
NCI-H1355 | 0.61 | 0.6 | 0.369 | 0.276 | 0.296 | 0.806 | 1.08 | 0.717 | 0.668 | 0.714 | 1.18 | 1.17 | 1.23 | 1.24 | 1.21 | 0.374 | 0.345 | 0.329 | 0.275 | 0.277
NCI-H1437 | 0.357 | 0.376 | 0.256 | 0.167 | 0.169 | 1.12 | 1.1 | 1.15 | 1.07 | 0.998 | 0.55 | 0.407 | 0.554 | 0.565 | 0.673 | 0.343 | 0.321 | 0.247 | 0.265 | 0.28
NCI-H1651 | 0.418 | 0.506 | 0.398 | 0.341 | 0.385 | 0.437 | 0.527 | 0.471 | 0.314 | 0.524 | 0.972 | 0.87 | 0.915 | 0.914 | 0.894 | 0.522 | 0.508 | 0.515 | 0.389 | 0.403
NCI-H1666 | 0.773 | 0.735 | 0.684 | 0.636 | 0.617 | 0.868 | 0.757 | 0.907 | 0.767 | 0.894 | 0.9 | 0.607 | 0.852 | 0.815 | 0.836 | 0.692 | 0.684 | 0.675 | 0.553 | 0.647
NCI-H1734 | 0.433 | 0.378 | 0.423 | 0.298 | 0.219 | 0.679 | 0.952 | 0.446 | 0.42 | 0.629 | 0.831 | 0.814 | 0.806 | 0.837 | 1.24 | 0.331 | 0.338 | 0.32 | 0.284 | 0.236
NCI-H1755 | 0.47 | 0.467 | 0.422 | 0.365 | 0.306 | 0.423 | 0.617 | 0.375 | 0.43 | 0.425 | 0.971 | 0.925 | 0.878 | 0.991 | 0.958 | 0.461 | 0.495 | 0.424 | 0.431 | 0.407
NCI-H1792 | 0.835 | 0.86 | 0.861 | 0.677 | 0.558 |  | 0.922 | 0.554 | 0.658 | 0.838 | 1.07 | 1.14 | 0.953 | 0.955 | 0.762 | 0.753 | 0.76 | 0.646 | 0.595 | 0.512
NCI-H1915 | 0.253 | 0.228 | 0.189 | 0.2 | 0.193 | 0.657 | 0.8 | 0.715 | 0.709 | 0.719 | 0.989 | 0.914 | 0.958 | 0.949 | 0.984 | 0.328 | 0.209 | 0.22 | 0.194 | 0.192
NCI-H1975 | 0.325 | 0.258 | 0.197 | 0.194 | 0.15 | 0.687 | 0.73 | 0.782 | 0.799 | 0.602 | 0.423 | 0.479 | 0.326 | 0.432 | 0.345 | 0.395 | 0.46 | 0.285 | 0.231 | 0.301
NCI-H1993 | 0.542 | 0.57 | 0.608 | 0.484 | 0.55 |  | 0.923 | 0.819 | 0.588 | 0.755 | 1.07 | 1.32 | 1.08 | 1.07 | 1.05 | 0.646 | 0.589 | 0.645 | 0.503 | 0.583
NCI-H2085 | 0.25 | 0.256 | 0.285 | 0.279 | 0.204 | 0.966 | 0.987 | 0.921 | 1.11 | 0.997 | 1.1 | 1.05 | 0.956 | 0.97 | 0.954 | 0.465 | 0.403 | 0.408 | 0.335 | 0.395
